Assay results from patent publication US11026944B2, “Compositions and methods for treating insomnia” (Eisai R&D Management Co., Ltd., priority 2014, dated 2021).
Read-outs that look alike come from different tables or passages of the source.

What was measured:
[1] = Single daily dose PK in human subjects (summary statements); assay type: in vivo; conditions: plasma, oral; for Cmax: read-out: mean maximum plasma concentration (Cmax); for half-life: read-out: mean t1/2 (converted); for Tmax: read-out: mean time to maximum plasma concentration (tmax)
[2] = Multiple ascending dose study (002 Study): plasma PK; assay type: in vivo, human; conditions: for concentration at 8 h / concentration at 10 h / AUC(0-t) / Cmax / Tmax / half-life: human, oral; for concentration at 8 h: plasma at 8 h, read-out: C8 Mean(SD); for concentration at 10 h: plasma at 10 h, read-out: C10 Mean(SD); for AUC(0-t) / Cmax / Tmax / half-life: plasma; for AUC(0-t): read-out: AUC(0-24) Mean(SD); for Cmax: read-out: Cmax Mean(SD); for Tmax: read-out: tmax Median
Method: A total of 48 healthy adult subjects (18 to 55 years) were to be enrolled into 1 of 6 cohorts sequentially in a gradual dose escalation manner, and randomized to receive either compound A or compound A-matched placebo in the evening 30 minutes before habitual bedtime, and after 3 hours fasting, for 14 days. Each cohort was to comprise 6 compound A-treated subjects and 2 placebo-treated subjects. Blood samples were collected for PK analysis at prespecified timepoints, and PD assessments were conducted.
Blood samples for determination of plasma concentrations of compound A were collected at Day 1 predose and postdose 0.5 (30 minutes), 1, 1.5, 2, 3, 4, 5, 6, 8, 10, and 12 hours; Days 2 to 13: predose; Day 14: predose and postdose 0.5 (30 minutes), 1, 1.5, 2, 3, 4, 5, 6, 8, 10, and 12 hours; Day 15: 24 hours after Day 14 dose; Days 16 to 19: 36, 60, 84, and 108 hours after Day 14 dose; Day 21, 24, 26, 28: As close as possible to 156, 228, 276, and 324 hours after Day 14 dose. Plasma concentrations of compound A were measured in the same manner as described in Example 1 and the above noncompartmental plasma PK parameters were calculated for compound A.
Compound A capsules and compound A-matched placebo capsules were available in strengths of 2.5 mg, 10 mg, and 50 mg. All study drugs were administered as daily doses using one or more compound A-capsules or compound A-matched placebo capsules due to the test dose.

healthy adult subjects = assay: 002 Study: PK-PD exploratory analysis of next-day residual sleepiness; assay type: in vivo, human; conditions: 9-10 hours postdose (1-2 hours after morning awakening), Day 2
Method: For the PK-PD exploratory analysis of next-day residual sleepiness, population PK model-derived compound A plasma concentrations at 8, 9, and 10 hours following administration on the evening of Day 1 were related to change from baseline on the KSS, PVT Lapses, and DSST at 15 minutes, 1 hour, and 2 hours after waketime on the morning of Day 2, respectively. […] Concentrations below 30 ng/mL (which occur at doses below 25 mg) after 9-10 hours postdose, which correspond to the 1-2 hours after morning awakening, were associated with minimal or no change from baseline on the KSS, PVT Lapses, or DSST.

[3] = 2.5 mg, Day 1, 2.5 mg once daily in the evening
[4] = 2.5 mg, Day 14, 2.5 mg once daily for 14 days
[5] = 5 mg, Day 1, 5 mg once daily in the evening
[6] = 5 mg, Day 14, 5 mg once daily for 14 days
[7] = 10 mg, Day 1, 10 mg once daily in the evening
[8] = 10 mg, Day 14, 10 mg once daily for 14 days
[9] = 25 mg, Day 1, 25 mg once daily in the evening
[10] = 25 mg, Day 14, 25 mg once daily for 14 days
[11] = 50 mg, Day 1, 50 mg once daily in the evening
[12] = 50 mg, Day 14, 50 mg once daily for 14 days
[13] = 75 mg, Day 1, 75 mg once daily in the evening
[14] = 75 mg, Day 14, 75 mg once daily for 14 days

SMILES: Cc1ncc(OC[C@@]2(c3cccc(F)c3)C[C@H]2C(=O)Nc2ccc(F)cn2)c(C)n1 [Compound A, (1R,2 S)-2-(((2,4-dimethylpyrimidin-5-yl)oxy)methyl)-2-(3-fluorophenyl)-N-(5-fluoropyridin-2-yl) cyclopropanecarboxamide]
- AUC(0-t) ([1]; 2.5 mg, single 2.5 mg daily dose, read-out: mean AUC(0-24)): 57 to 60 ng·h/mL
- AUC(0-t) ([1]; 2.5 mg, single 2.5 mg daily dose, read-out: mean AUC(0-t)): 80 to 95 ng·h/mL
- AUC(0-t) ([1]; 5 mg, single 5 mg daily dose, read-out: mean AUC(0-24)): 95 to 110 ng·h/mL
- AUC(0-t) ([1]; 5 mg, single 5 mg daily dose, read-out: mean AUC(0-t)): ~128 ng·h/mL
- AUC(0-t) ([1]; 10 mg, single 10 mg daily dose, read-out: mean AUC(0-24)): 160 to 190 ng·h/mL
- AUC(0-t) ([1]; 10 mg, single 10 mg daily dose, read-out: mean AUC(0-t)): 280 to 510 ng·h/mL
- AUC(0-inf) ([1]; single 2.5 mg daily dose): 80 to 103 ng·h/mL
- Cmax ([1]; single 2.5 mg daily dose): 10 to 18 ng/mL
- half-life ([1]; single 2.5 mg daily dose): 30 to 37 h
- Tmax ([1]; single 2.5 mg daily dose): 1 to 2 h
- AUC(0-inf) ([1]; single 5 mg daily dose): ~150 ng·h/mL
- Cmax ([1]; single 5 mg daily dose): 19 to 23 ng/mL
- half-life ([1]; single 5 mg daily dose): ~31 h
- Tmax ([1]; single 5 mg daily dose): 1 to 2 h
- AUC(0-inf) ([1]; single 10 mg daily dose): 310 to 530 ng·h/mL
- Cmax ([1]; single 10 mg daily dose): 30 to 58 ng/mL
- half-life ([1]; single 10 mg daily dose): 56 to 60 h
- Tmax ([1]; single 10 mg daily dose): 1 to 3.25 h
- Accumulation ([2]; 14 days once daily): lower than predicted by the terminal half-life
- Cmax Mean(SD) ([2]; Day 1, 25 mg once daily in the evening): 92.0(24.0) ng/mL
- t1/2 Mean(SD) ([2]; Day 14, 50 mg once daily for 14 days): 55.5(21.3) h
- AUC(0-24 h) dose proportionality ([2]; dose-normalized data, Day 1): increased slightly less than in proportion to dose
- Cmax dose proportionality ([2]; dose-normalized data, Day 1 and Day 14): increased slightly less than in proportion to dose
- AUC(0-24 h) dose proportionality ([2]; dose-normalized data, Day 14): increased in approximate proportion to dose
- concentration at 8 h ([2]; Day 1, 2.5 mg): 2.33 ng/mL
- concentration at 8 h ([2]; Day 1, 5 mg): 4.4 ng/mL
- concentration at 8 h ([2]; Day 1, 10 mg): 8.51 ng/mL
- concentration at 8 h ([2]; Day 1, 25 mg): 24.1 ng/mL
- concentration at 8 h ([2]; Day 1, 50 mg): 38.1 ng/mL
- concentration at 8 h ([2]; Day 1, 75 mg): 54.5 ng/mL
- concentration at 10 h ([2]; Day 1, 2.5 mg): 2.04 ng/mL
- concentration at 10 h ([2]; Day 1, 5 mg): 3.63 ng/mL
- concentration at 10 h ([2]; Day 1, 10 mg): 7.72 ng/mL
- concentration at 10 h ([2]; Day 1, 25 mg): 19.8 ng/mL
- concentration at 10 h ([2]; Day 1, 50 mg): 32.9 ng/mL
- concentration at 10 h ([2]; Day 1, 75 mg): 44.2 ng/mL
- AUC(0-t) [2, 3]: 59.4 ng·h/mL
- Cmax [2, 3]: 10.1 ng/mL
- Tmax [2, 3]: 2.02 h
- AUC(0-t) [2, 4]: ~120 ng·h/mL
- Cmax [2, 4]: ~15 ng/mL
- half-life ([2]; 2.5 mg, Day 14, 2.5 mg once daily for 14 days, read-out: t1/2 Mean(SD) (converted)): ~44 h
- Tmax [2, 4]: ~2 h
- AUC(0-t) [2, 5]: 108 ng·h/mL
- Cmax [2, 5]: 19.4 ng/mL
- Tmax [2, 5]: 1.25 h
- AUC(0-t) [2, 6]: ~190 ng·h/mL
- Cmax [2, 6]: ~24 ng/mL
- half-life ([2]; 5 mg, Day 14, 5 mg once daily for 14 days, read-out: t1/2 Mean(SD) (converted)): ~46 h
- Tmax [2, 6]: ~1 h
- AUC(0-t) [2, 7]: 187 ng·h/mL
- Cmax [2, 7]: 30.4 ng/mL
- Tmax [2, 7]: 3.25 h
- AUC(0-t) [2, 8]: ~360 ng·h/mL
- Cmax [2, 8]: ~47 ng/mL
- half-life ([2]; 10 mg, Day 14, 10 mg once daily for 14 days, read-out: t1/2 Mean(SD) (converted)): ~55 h
- Tmax [2, 8]: ~2 h
- half-life ([2]; 10 mg, doses of 10 mg and higher, following Day 14 dosing, read-out: mean terminal half-life (converted)): ~55 h
- AUC(0-t) [2, 9]: 549 ng·h/mL
- Tmax [2, 9]: 1.5 h
- AUC(0-t) [2, 10]: 1100 ng·h/mL
- Cmax [2, 10]: 107 ng/mL
- half-life ([2]; 25 mg, Day 14, 25 mg once daily for 14 days, read-out: t1/2 Mean(SD) (converted)): 50.6 h
- Tmax [2, 10]: 3 h
- half-life ([2]; 50 mg, 50-mg dose, read-out: effective half-life based on accumulation (converted)): 28 h
- AUC(0-t) [2, 11]: 931 ng·h/mL
- Cmax [2, 11]: 199 ng/mL
- Tmax [2, 11]: 2 h
- AUC(0-t) [2, 12]: 2300 ng·h/mL
- Cmax [2, 12]: 220 ng/mL
- Tmax [2, 12]: 2.02 h
- half-life ([2]; 75 mg, 75-mg dose, read-out: effective half-life based on accumulation (converted)): 39.3 h
- AUC(0-t) [2, 13]: 1260 ng·h/mL
- Cmax [2, 13]: 223 ng/mL
- Tmax [2, 13]: 3 h
- AUC(0-t) [2, 14]: 3790 ng·h/mL
- Cmax [2, 14]: 420 ng/mL
- half-life ([2]; 75 mg, Day 14, 75 mg once daily for 14 days, read-out: t1/2 Mean(SD) (converted)): 56.2 h
- Tmax [2, 14]: 2 h
- half-life ([2]; 2.5- and 5-mg doses, average, read-out: terminal half-life (converted)): ~45 h
- half-life ([2]; doses ranging from 2.5 to 25 mg, read-out: effective half-life based on accumulation (converted)): 16.9 to 24.7 h
- plasma concentration associated with minimal or no change from baseline on KSS, PVT Lapses, DSST (healthy adult subjects): below 30 ng/mL
